The NIST ThermoML archive (doi:10.1016/j.fluid.2006.09.019)
Numbers after ± are expanded uncertainties.

Settings: Liquid

COC(=O)CO [methyl hydroxyethanoate]
vapor or sublimation pressure (293.23 K): 0.4864 ± 0.077 kPa
vapor or sublimation pressure (303.17 K): 0.8459 ± 0.12 kPa
vapor or sublimation pressure (313.27 K): 1.409 ± 0.16 kPa
vapor or sublimation pressure (323.12 K): 2.311 ± 0.18 kPa
vapor or sublimation pressure (333.28 K): 3.738 ± 0.22 kPa
vapor or sublimation pressure (343.26 K): 5.905 ± 0.27 kPa
vapor or sublimation pressure (353.25 K): 9.292 ± 0.36 kPa
